Tests used:
Assay type in all cases: cell-based
NCI-H1299 cells = test: Cell viability (MTS) assay in NCI-H1299 cells; conditions: Homo sapiens, 48 h
Experimental: To test the effect of the compounds in terms of cell growth regulation in lung cancer cell lines such as A549 and NCI-H1299 cells, these cells were treated in 96-well plates for 48 h with the compounds at concentrations ranging from 0 μM to 100 μM. […] Therefore, we decided to perform an additional experiment with 9c.
A549 and NCI-H1299 cells were seeded in 96-well plates at a density of 1 × 10^5 cells per well for 24 h before being exposed to compounds at various concentrations. After 48 h of compound treatment, the CellTiter 96 AQueous One Solution Cell Proliferation Assay Kit (Promega, Madison, WI, USA) was used to conduct a cell viability assay. The cells were incubated with solution reagents for 2 h at 37 °C before being measured for absorbance at 490 nm using a Synergy HTX Multi-Mode microplate reader (BioTek Instruments, Inc., Winooski, VT, USA).

A549 cells [1] = test: Mitochondrial membrane potential by TMRM flow cytometry; conditions: 48 h, control 93.8%
Experimental: ROS-induced oxidative stress can cause the rapid depolarization of the inner mitochondrial membrane potential (ΔΨm) and, as a result, impairment of oxidative phosphorylation. Using tetramethylrhodamine methyl ester (TMRM) measurements, we investigated how mitochondrial membrane potential was affected by 9c. A549 cells were exposed to 9c following incubation with TMRM. Afterward, flow cytometry was employed to calculate the intensity of TMRM binding in the healthy membrane.
(§1) A549 cells were incubated with a fluorescent indicator, specifically 100 nM tetramethylrhodamine methyl ester perchlorate (TMRM, Thermo Fisher Scientific, Waltham, MA, USA), to determine the mitochondrial membrane potential. The A549 cells treated with the compound were harvested after 48 h, washed in PBS, and re-suspended in FACS buffer (PBS supplemented with 2 percent fetal bovine serum). A flow cytometer (BD FACSVerse, BD Biosciences, San Jose, CA, USA) and the FlowJo software (FlowJo LLC, Ashland, OR, USA) were used to analyze the cells. […] Intracellular fluorescence measurements involved the use of a flow cytometer (BD FACSVerse, BD Biosciences, San Jose, CA, USA) and the FlowJo software (Version 10, TreeStar, Ashland, OR, USA).

A549 cells [2] = test: Live-dead assay (calcein/EthD-1) by flow cytometry; conditions: 48 h
Experimental: A live cell assay and a dead cell assay were carried out using a mixture of two fluorescent dyes: calcein (green dye for live cells) and ethidium homodimer-1 (EthD-1, red dye for dead cells). The cells were washed and stained with calcein and EthD-1 before conducting imaging fluorescence microscopy and flow cytometry experiments. When treated with 20 μM 9c, we observed a drastic decrease in the number of live cells (green) and a slight increase in the number of dead cells (red).
The A549 cells were seeded in 6-well plates at a density of 1 × 10^6 cells per well, and the cells underwent treatment with the compound (20 and 40 μM) for 48 h. The A549 cells were analyzed using fluorescent dyes for both living and dead cells with the LIVE/DEAD kit (Thermo Fisher Scientific, Waltham, MA, USA). For cell staining, we used EthD-1 and calcein by referring to the manufacturer’s instructions. Images were captured with an EVOS M5000 Imaging System (Thermo Fisher Scientific Inc., Waltham, MA, USA).

A549 cells [3] = test: Intracellular ROS by H2DCF-DA flow cytometry; conditions: 48 h, control 1.26%
Excerpt: Although reactive oxygen species (ROS) play an important role in regulating normal cellular processes, abnormal ROS levels contribute to the development of a variety of human diseases, including cancer. Because of their accelerated metabolism, cancer cells have higher ROS levels than normal cells. Nevertheless, the high ROS content of cancer cells makes them more susceptible to oxidative stress-induced cell death, which can be used to target cancer cells selectively. Flow cytometry was used to determine whether 9c induces ROS generation in A549 cells by examining the results. The experiment was conducted with H2DCF-DA as a fluorescent probe. […] Next, we determined the effect of 9c in regulating mitochondrial ROS.
as §1, with “serum).” for “serum). A flow cytometer (BD FACSVerse, BD Biosciences, San Jose, CA, USA) and the FlowJo software (FlowJo LLC, Ashland, OR, USA) were used to analyze the cells.”

COc1cc(Nc2nc(N)nc(-c3ccc(O)cc3)n2)ccc1Cl [Compound 9c, 4-{4-amino-6-[(4-chloro-3-methoxyphenyl)amino]-1,3,5-triazin-2-yl}phenol]
viability at 25 µM (NCI-H1299 cells): 68.8% | TMRM-positive intensity, TMRM (+) (A549 cells [1]; 20 μM): 74.6% | TMRM-positive intensity, TMRM (+) (A549 cells [1]; 40 μM): 52.3% | Dead cells (quadrant Q4) (A549 cells [2]; 20 μM): 34.4% | Dead cells (quadrant Q4) (A549 cells [2]; 40 μM): 46.1% | ROS level (H2DCF-DA positive) (A549 cells [3]; 20 μM): 7.31% | ROS level (H2DCF-DA positive) (A549 cells [3]; 40 μM): 22.6%
